Experiment: Krafft point of the anionic surfactant
Format: physicochemical
Conditions: Krafft point at 10 mass% in aqueous solution; unit not given, Krafft points in °C
Method: The present invention uses a view that the Krafft point is a melting point of a hydrated solid of a surfactant. That is, the Krafft point is the temperature at which a surfactant precipitates when an aqueous solution thereof is cooled. In some kinds of surfactants, the Krafft point changes depending on the concentration. In the present invention, an anionic surfactant having a Krafft point of 45°C or more at a concentration of 10 mass% in an aqueous solution is used. The Krafft point can be measured using a differential scanning calorimetry.

Kp (Krafft point) | Compound
Sodium laurate (Kp ≈ 38) | CCCCCCCCCCCC(=O)[O-].[Na+] [Sodium laurate]
Sodium stearate (Kp = 79) | CCCCCCCCCCCCCCCCCC(=O)[O-].[Na+] [Sodium stearate]

Compound | Kp (Krafft point)
CCCCCCCCCCCCCCCCCC(=O)N(C)CCS(=O)(=O)[O-].[Na+] [Sodium N-stearoyl-N-methyltaurate] | Sodium N-stearoyl-N-methyltaurate (Kp = 50) (Nikkol SMT, manufactured by Nikko Chemicals Co., Ltd.)

— patent EP4151201A1, “SHEET PRODUCT” (Kao Corporation, priority 2020, dated 2021)
